Some test systems named below: ACHN renal; HCC-2998 colon; NCI-H226 lung; NCI-H23 lung; NCI-H522 lung; RXF 393 renal; SK-MEL-5 melanoma; SN12C renal; UACC-62 melanoma; UO-31 renal.
What all share (test): NCI-60 cell line screen, 48 h

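The compound was tested at five concentrations on cells cultured in 96-well plates, with a 48-hour exposure period. Here, GI50 denotes the concentration required for 50% inhibition of growth. TGI denotes the concentration required for complete inhibition of growth.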

Turning to `CCOC(=O)[C@@H](C)C[C@H](Cc1ccccc1)NC(=O)c1csc([C@@H](C[C@H](C(C)C)N(C)C(=O)CNC(=O)[C@H]2CCCCN2C)OC(C)=O)n1`, the GI50 in the assay on ACHN renal was 0.837 µM; with HCC-2998 colon, 0.795 µM; in the assay on NCI-H226 lung, above 5.67 µM; in the assay on NCI-H23 lung, 2.34 µM; in the assay with NCI-H522 lung, 0.463 µM; with RXF 393 renal, 0.502 µM. The GI50 was 0.444 µM in the assay with SK-MEL-5 melanoma, 2.18 µM in the assay on SN12C renal, 0.514 µM with UACC-62 melanoma and 5.07 µM with UO-31 renal. In addition, the TGI was above 14.3 µM in the assay on ACHN renal; above 14.3 µM in the assay with HCC-2998 colon; above 14.3 µM with NCI-H226 lung; above 14.3 µM in the assay on NCI-H23 lung; above 3.79 µM with NCI-H522 lung; 4.62 µM in the assay with RXF 393 renal. Besides, the TGI in the assay on SK-MEL-5 melanoma is above 7.3 µM; with SN12C renal, above 14.3 µM; in the assay with UACC-62 melanoma, above 14.3 µM; with UO-31 renal it was above 14.3 µM.

With `CCCC(O)[C@@]1(CC)CC(C)C(O)(C2(C)C[C@H](C)[C@@H](C(CC)C(=O)C(C)[C@@H](O)[C@H](C)C3OC(O)(C(CC)C(=O)O)[C@@H](C)C(O)C3CC)O2)O1` (stereo not given in full), the TGI stood at 6.78 µM with ACHN renal; 1.49 µM in the assay on HCC-2998 colon; 2.99 µM in the assay with NCI-H226 lung; 2.28 µM in the assay on NCI-H23 lung; 0.537 µM in the assay on NCI-H522 lung; 1.61 µM with RXF 393 renal. Moreover, the TGI came to 1.18 µM with SK-MEL-5 melanoma, 2.39 µM with SN12C renal, 2.86 µM with UACC-62 melanoma and 3.18 µM with UO-31 renal.

`COC(=O)c1ccc(NC(N)=NCCC(C)(C)c2ccc(C(F)(F)F)cc2)nc1`: the GI50 with ACHN renal was 1.91 µM; in the assay with HCC-2998 colon it was 1.79 µM; in the assay with NCI-H226 lung, 3.33 µM; in the assay with NCI-H23 lung, 2.15 µM; in the assay with NCI-H522 lung it was 3.1 µM; with RXF 393 renal it was 2.18 µM. The GI50 in the assay on SK-MEL-5 melanoma is 1.56 µM; in the assay on SN12C renal, 1.7 µM; in the assay on UACC-62 melanoma, 1.58 µM; in the assay on UO-31 renal it was 2.9 µM. Besides, the TGI was 4.85 µM with ACHN renal; 3.64 µM in the assay on HCC-2998 colon; 18.8 µM in the assay with NCI-H226 lung; 11.5 µM in the assay on NCI-H23 lung; 13 µM in the assay on NCI-H522 lung; 5.06 µM in the assay with RXF 393 renal. Further, the TGI in the assay with SK-MEL-5 melanoma is 2.99 µM; in the assay on SN12C renal, 3.25 µM; in the assay on UACC-62 melanoma it was 3.07 µM; in the assay with UO-31 renal, 15.6 µM.
